Experiments:
HepG2 cells [1] = test: total Hcys in HepG2 cells (ELISA); format: cell-based, human; settings: 5 or 10 μM, 12 h
Protocol: Fig. 3 The effect of CH004 on the activity of endogenous hCBS in cells. a CH004 dose-dependently elevates the levels of Hcys in HepG2 and HEK293T cells. HepG2 cells or HEK293T cells were incubated with indicated CH004 or DMSO (control) for 12 h. The amount of total Hcys in cells was measured by ELISA using Axis® Homocysteine EIA kit (IBL, AX51301) (“Materials and Methods” section). […] HepG2 cells were treated with indicated DMSO, CH004 or HA for 8 h before the staining with AzMC probe. The amount of the H2S (blue) was quantified and is shown in (c). Bars, 50 μm. Control (CTR), DMSO group (100%). A representative fluorescence image from three independent experiments is shown. Means ± SDS (n = 3). d CH004 elevates Hcys in the peripheral blood of rats. The total Hcys of the blood samples collected from the anesthetized rats at the 75 min time point (Materials and Methods) were quantified by ELISA (see above). Means ± SDS (n = 6).
HepG2 or HEK293T cells were seeded in poly-D-Lys-coated 6-well plates at a density of ∼ 5 × 10^5 cells per well for one day, treated with DMSO or various concentrations of compounds for another 12 h before the collection by scraping or trypsinization. […]

HEK293T cells [2] = test: cell cycle distribution (propidium iodide, flow cytometry); format: cell-based; settings: 3 μM, 12 h
Protocol: Fig. 4 CH004 arrests the cell cycle at the S phase. a CH004 reduces the cell viability of HEK293T and HepG2 cells. HEK293T or HepG2 cells were treated with indicated concentrations of CH004 for 24 h before the cell number was analyzed using the CellTiter96® Aqueous One Solution Cell Proliferation Assay (Promega, Materials and Methods). The means at each concentration of one representative experiment are shown as percentages of DMSO (control, 100%). Means ± SDs (n = 3). b Overexpression of hCBS or knock-down of hCBS counteracts the growth inhibition exerted by CH004 in HEK293T cells. Indicated HEK293T stable cell lines were treated with the CH004 or DMSO for 24 h. Then, the cell viability was quantified with the CellTiter 96® Aqueous One Solution Cell Proliferation Assay under the standard protocol (Promega). […] The efficacy for CBS overexpression and knock-down in HEK293T cells was determined by Western blotting using an anti-CBS antibody (3E1, 1:2000; Abnova). c CH004 induces cell death in HEK293T and HepG2 cells. […] HEK293T cells were incubated with indicated compounds for 12 h, and the DNA content was quantified with propidium iodide to analyze the cell cycle distribution by flow cytometry (e). The cell cycle distributions for HEK293T-shNT and HEK293T-shCBS cells were accordingly analyzed and are shown in f. […]

HEK293T cells [3] = test: intracellular ROS (DCFH-DA, flow cytometry); format: cell-based; settings: 12 h
Protocol: Fig. 5 In situ reduction of CBS activity and H2S in mitochondria by CH004 is coupled with an increase of intracellular ROS. a, b CH004 dose-dependently elevates ROS levels in both HepG2 (a) and HEK293T cells (b). The cells were treated with CH004 for 12 h or with 1 mM H2O2 for 30 min before the staining with DCFH-DA (Molecular Probes) and the analyzsis by flow cytometry (“Materials and Methods” section). Means ± SDS (n = 3). […] HepG2 cells were incubated with indicated inhibitors for 8 h before staining with the mitochondria tracker Mito-tracker® Green (Invitrogen) and the AzMC probe. Cyan represents the colocalization of H2S (blue) and the mitochondria tracker (green). Bars: 50 μm. d hCBS co-localizes with the mitochondria in HepG2 and HEK293T cells. HepG2 and HEK293T cells were stained with an anti-CBS antibody (3E1, 1:200; Abnova) for hCBS (red), Mito-tracker® Green for the mitochondria (green) and DAPI for the nucleus (blue). […]
To investigate the intracellular ROS levels, HEK293T or HepG2 cells were seeded in 6-well plates for one day, then incubated with the indicated inhibitors and 1 mM H2O2 for 12 h and 30 min, respectively. After trypsinization and one wash in PBS, the collected cells were resuspended in PBS and incubated with 100 μM probe DCFH-DA for 30 min at 37 °C before being analyzed using an LSR Fortessa flow cytometer.

HepG2 cells [4] = test: intracellular total glutathione (Cayman kit); format: cell-based, human; settings: 24 h
Protocol: Then, the cells from two wells were collected by cell scraper and washed once with PBS. The intracellular total glutathione (GSH) was measured with a commercial glutathione assay kit under the standard protocol (Cayman Chemical, Ann Arbor, USA). […] Supernatant was then collected after centrifugation at 12,000 × g for 15 min at 4 °C before the deproteination by adding an equal volume of 2.5 M metaphosphoric (MPA, Sigma). After the incubation for 5 min, the mixture was centrifuged at 3000 × g for 5 min. The supernatant was collected and added appropriate amount of 4 M triethanolamine (Sigma, 50 μl per 1 ml of the supernatant). The deproteinated and neutralized supernatant was used for the determination of the amount of total GSH by incubating with the assay reagents (from the kit) in a 96-well plate. After an incubation of 25 min, the absorbance at 405 nm was recorded and converted into the amount of GSH with a standard curve.

Compound: Cn1nc(Cc2ccccc2)nc2c(=O)n(C)c(=O)nc1-2 [CH004, 3-benzyl-1,6-dimethylpyrimido[5,4-e][1,2,4]triazine-5,7(1H,6H)-dione]
- increase of Hcys (HepG2 cells [1]): ~ 2 fold
- increase in cell number in the S phase (HEK293T cells [2]): more than 20%
- maximum increase of cellular ROS (HEK293T cells [3]): ~ 2 fold
- intracellular pool of glutathione (GSH) (HepG2 cells [4]): dose-dependently deplete

Source: article PMC6158189, “A pharmacological probe identifies cystathionine β-synthase as a new negative regulator for ferroptosis” (Cell Death & Disease, 2018)
